US20170008928A1, “NOVEL PEPTIDES AND PEPTIDE DERIVATIVES AND USES THEREOF” (Novo Nordisk A/S, priority 2015, published 2017)
Like-named read-outs stand apart in the source and are kept apart here. Starred links: 1 amine or outer side, 2 acyl side, 3 side chain; linkers in the order of their positions; H or OH if unused. Non-standard residues stand in square brackets, D forms with d. Residues, ends and D or L forms follow the SMILES beside them. *: point of attachment. Phe(4-CH2SO3H) = N[C@@H](Cc1ccc(CS(=O)(=O)O)cc1)C(=O)O; C20 diacid = O=C(O)CCCCCCCCCCCCCCCCCCC(=O)*; sY = N[C@@H](Cc1ccc(OS(=O)(=O)O)cc1)C(=O)O; C18 diacid = O=C(O)CCCCCCCCCCCCCCCCC(=O)*; γGlu = O=C(O)[C@H](CCC(=O)[*:2])N[*:1]; βAsp = O=C(O)[C@H](CC(=O)[*:2])N[*:1]; NMeF = CN[C@@H](Cc1ccccc1)C(=O)O; dNMeD = CN[C@H](CC(=O)O)C(=O)O; Nle = CCCC[C@H](N)C(=O)O; AEEA = NCCOCCOCC(=O)O

Experiments:
[1] = molecular target: T1, human cholecystokinin-2 receptor (CCK-2R) (Homo sapiens, UniProt P32239); test: In vitro potency on CCK-2R, whole cell functional assay (IP1 accumulation, IP-One HTRF); format: cell-based
T1 construct: host or cells: 1321-N1 cells (plasma membranes prepared by Evotec AG Hamburg)
T1 sequence (P32239 1-447): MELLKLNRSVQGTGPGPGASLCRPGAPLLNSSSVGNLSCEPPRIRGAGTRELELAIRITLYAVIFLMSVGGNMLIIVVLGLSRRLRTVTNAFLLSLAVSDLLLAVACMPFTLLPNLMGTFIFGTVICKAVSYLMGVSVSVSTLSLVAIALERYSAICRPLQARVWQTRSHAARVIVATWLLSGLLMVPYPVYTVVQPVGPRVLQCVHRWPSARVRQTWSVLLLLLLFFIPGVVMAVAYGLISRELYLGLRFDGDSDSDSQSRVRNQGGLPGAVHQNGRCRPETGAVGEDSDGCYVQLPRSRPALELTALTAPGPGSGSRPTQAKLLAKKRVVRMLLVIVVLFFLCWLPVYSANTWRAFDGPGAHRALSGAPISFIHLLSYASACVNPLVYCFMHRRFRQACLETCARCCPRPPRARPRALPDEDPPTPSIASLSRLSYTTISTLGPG

[2] = molecular target: T1, human cholecystokinin-2 receptor (CCK-2R); test: In vitro receptor binding to CCK-2R, SPA displacement of [125I]-CCK-8s from plasma membranes
Method: The in vitro binding affinity is a measure of the strength of attraction between a receptor and its ligand.
Displacement of radio ligand was measured as reduction in light emission from SPA beads.
The cells used in these assays were 1321-N1 cells stably expressing the CCK-1R or the CCK-2R (Perkin Elmer product numbers ES-530-A and ES-531-A, respectively see www.perkinelmer.com/Catalog/Product/ID/ES-530-A or -ES-531-A, respectively).
The cells were cultured in an incubator (95% RH (relative humidity), 5% (of standard atmospheric pressure) CO2, 37° C.) in cell culture medium (DMEM (Lonza catalogue BE-12-604F/U1), with 10% (v/v) Foetal Calf Serum (FCS, Gibco catalogue 16140-071), 1% (w/w) Sodium pyruvate (Gibco catalogue 11360-039), 500 μg/ml Geneticin® (G418) (Gibco catalogue 10131-027), 25 μg/ml Zeocin™ (Invitrogen catalogue R250-05), 1% (w/w) Pen/Strep (Gibco catalogue 15140-122)).
Plasma membranes were prepared by Evotec AG Hamburg by use of the ParrBomb (#4635, Parr Instrument Company). Cells were lysed with a lysis buffer (50 mM Tris, 2.5 mM EDTA, pH7) with added protease inhibitors (Complete Proteaseinhibitors EDTA-free (#05056489001, Roche), 1 tablet per 50 mL lysis buffer). The membrane fraction was separated by centrifugation. First, the cell lysate was centrifuged at 1000×g for 10 minutes at 4° C. The pellet was discarded and the supernatant was then centrifuged at 100.000×g for 30 minutes at 4° C. The supernatant was discarded and the pellet was re-suspended in 1 ml/5×10^8 cells ice cold membrane buffer (50 mM Tris, 320 mM Sucrose and Complete Proteaseinhibitors EDTA-free (#05056489001, Roche); pH7.4) and homogenised with dounce homogeniser. The protein concentration was determined using the Pierce™ BCA Protein Assay Kit according to kit manual, and the membrane preparation was adjust to the desired protein concentration with membrane buffer and aliquoted into pre-cooled tubes, snap-frozen in liquid nitrogen, and stored at −80° C.
CCK receptor binding assays were performed in 96-well Optiplates (Cat #6005290, PerkinElmer, Waltham, Mass., USA) in a total volume of 200 μl per well. CCK derivatives in 80% DMSO stock solutions of 800 μM were serially diluted […] in assay buffer (50 mM Tris/HCl, 4.5 mM MgCl2, […], 0.02% Tween 20, 0.25% ovalbumin, 0.1% pluronic F-68, pH 7.4) to final assay concentrations ranging from 10^−5 M (ten μM) to 10^−12 M (one pM).
Fifty μl of reference or test compounds were added to the Optiplates (using technical duplicates, i.e. two wells of each sample, one data point being the average of two wells), followed by addition of 150 μl of the mixture of SPA bead, radio ligand, and plasma membrane. The plates were sealed and incubated in the dark at +22° C. for 2 hours on a IKA MTS plate shaker (IKA-Werke D-79219 Staufen) set at 300 rpm and thereafter centrifuged at 1500 rpm for 10 minutes in a Heraeus Multifuge 3s centrifuge. SPA bead light emission was measured in a TopCount NXT (PerkinElmer) for 2 min/well after a delay of 60 min.
As a measure of compound affinity, calculations were performed in order to determine the half maximal inhibitory concentration (the IC50 value).
The data from the TopCounter were given as counts per minute (CPM). The CPM was plotted as a function of the concentration of compound. Dose-response curves were obtained, and IC50 values were calculated, by a nonlinear three-parameter logistic equation (log(agonist) vs response) with hillslope=−1, and shared top and bottom using the software programme GraphPad Prism v 6.0 (Graph Pad software, La Jolla, Calif., USA). The highest dose tested was 10^−5 M (1×10^7 pM).
The preference of a specific compound for the CCK-1 receptor, or the CCK-1R selectivity, may be defined as IC50 (CCK-2R)/IC50 (CCK-1R).
A minimum of three biological replicates was measured for each test compound on separate assay plates.

[3] = 1321-N1 cells stably expressing CCK-2R, IP1 accumulation, highest dose tested 1×10^6 pM, read-out: EC50 (CCK-2R)
[4] = displacement of [125I]-CCK-8s, plasma membranes of 1321-N1 cells expressing CCK-2R, highest dose tested 1×10^7 pM, read-out: IC50 (CCK-2R)

| SMILES | EC50 [1, 3] [nM] | IC50 [2, 4] [nM] | IC50 [2] [nM] | EC50 [1] [nM] |
| --- | --- | --- | --- | --- |
| CCCC[C@H](NC(=O)[C@H](Cc1c[nH]c2ccccc12)NC(=O)CNC(=O)[C@@H](NC(=O)[C@H](Cc1ccc(OS(=O)(=O)O)cc1)NC(=O)[C@@H](N)CC(=O)O)[C@@H](C)CC)C(=O)N(C)[C@H](CC(=O)O)C(=O)N(C)[C@@H](Cc1ccccc1)C(N)=O [Example 81, Asp-sTyr-Ile-Gly-Trp-Nle-DMeAsp-MePhe-amide] (H-D[sY]IGW[Nle][dNMeD][NMeF]-NH2) | > 1000 | > 10000 |  |  |
| CCCC[C@H](NC(=O)[C@H](Cc1c[nH]c2ccccc12)NC(=O)CNC(=O)[C@H](CCCCN)NC(=O)[C@H](Cc1ccc(OS(=O)(=O)O)cc1)NC(=O)[C@H](CC(=O)O)NC(=O)COCCOCCNC(=O)COCCOCCNC(=O)CC[C@H](NC(=O)CCCCCCCCCCCCCCCCC(=O)O)C(=O)O)C(=O)N(C)[C@H](CC(=O)O)C(=O)N(C)[C@@H](Cc1ccccc1)C(N)=O [Example 16, 2-[2-[2-[[2-[2-[2-[[(4S)-4-Carboxy-4-(17-carboxyheptadecanoylamino)butanoyl]amino]ethoxy]ethoxy]acetyl]amino]ethoxy]ethoxy]acetyl-Asp-sTyr-Lys-Gly-Trp-Nle-DMeAsp-MePhe-amide] ({C18 diacid-γGlu-AEEA-AEEA}-D[sY]KGW[Nle][dNMeD][NMeF]-NH2) |  |  | > 10000 |  |
| CC(C)C[C@H](NC(=O)[C@H](Cc1ccc(OS(=O)(=O)O)cc1)NC(=O)[C@H](CC(=O)O)NC(=O)COCCOCCNC(=O)COCCOCCNC(=O)CC[C@H](NC(=O)CCCCCCCCCCCCCCCCC(=O)O)C(=O)O)C(=O)NCC(=O)N[C@@H](Cc1c[nH]c2ccccc12)C(=O)N[C@@H](CC(C)C)C(=O)N(C)[C@H](CC(=O)O)C(=O)N(C)[C@@H](Cc1ccccc1)C(N)=O [Example 13, 2-[2-[2-[[2-[2-[2-[[(4S)-4-Carboxy-4-(17-carboxyheptadecanoylamino)butanoyl]amino]ethoxy]ethoxy]acetyl]amino]ethoxy]ethoxy]acetyl-Asp-sTyr-Leu-Gly-Trp-Leu-DMeAsp-MePhe-amide] |  |  | 420 | 79 |
| CC(C)C[C@H](NC(=O)[C@H](Cc1ccc(OS(=O)(=O)O)cc1)NC(=O)[C@@H](N)CCC(=O)O)C(=O)NCC(=O)N[C@@H](Cc1c[nH]c2ccccc12)C(=O)N[C@@H](CCC(N)=O)C(=O)N(C)[C@H](CC(=O)O)C(=O)N(C)[C@@H](Cc1ccccc1)C(N)=O [Example 86, Glu-sTyr-Leu-Gly-Trp-Gln-DMeAsp-MePhe-amide] | > 1000 | > 10000 |  |  |
| CCCC[C@H](NC(=O)[C@H](Cc1c[nH]c2ccccc12)NC(=O)CNC(=O)[C@@H](NC(=O)[C@H](Cc1ccc(OS(=O)(=O)O)cc1)NC(=O)[C@H](CC(=O)O)NC(=O)COCCOCCNC(=O)COCCOCCNC(=O)CC[C@H](NC(=O)CCCCCCCCCCCCCCCCC(=O)O)C(=O)O)[C@@H](C)CC)C(=O)N(C)[C@H](CC(=O)O)C(=O)N(C)[C@@H](Cc1ccccc1)C(N)=O [Example 47, 2-[2-[2-[[2-[2-[2-[[(4S)-4-Carboxy-4-(17-carboxyheptadecanoylamino)butanoyl]amino]ethoxy]ethoxy]acetyl]amino]ethoxy]ethoxy]acetyl-Asp-sTyr-Ile-Gly-Trp-Nle-DMeAsp-MePhe-amide] ({C18 diacid-γGlu-AEEA-AEEA}-D[sY]IGW[Nle][dNMeD][NMeF]-NH2) |  | 340 |  |  |
| CC(C)C[C@H](NC(=O)[C@H](Cc1ccc(OS(=O)(=O)O)cc1)NC(=O)[C@@H](N)CC(=O)O)C(=O)NCC(=O)N[C@@H](Cc1c[nH]c2ccccc12)C(=O)N1CCC[C@H]1C(=O)N(C)[C@H](CC(=O)O)C(=O)N(C)[C@@H](Cc1ccccc1)C(N)=O [Example 66, Asp-sTyr-Leu-Gly-Trp-Pro-DMeAsp-MePhe-amide] (H-D[sY]LGWP[dNMeD][NMeF]-NH2) |  |  | > 10000 | > 1000 |
| CCCC[C@H](NC(=O)[C@H](Cc1ccc(CS(=O)(=O)O)cc1)NC(=O)C[C@H](NC(=O)COCCOCCNC(=O)COCCOCCNC(=O)CC[C@H](NC(=O)CCCCCCCCCCCCCCCCC(=O)O)C(=O)O)C(=O)O)C(=O)NCC(=O)N[C@@H](Cc1c[nH]c2ccccc12)C(=O)N[C@@H](CCCC)C(=O)N(C)[C@H](CC(=O)O)C(=O)N(C)[C@@H](Cc1ccccc1)C(N)=O [Example 26, 2-[2-[2-[[2-[2-[2-[[(4S)-4-Carboxy-4-(17-carboxyheptadecanoylamino)butanoyl]amino]ethoxy]ethoxy]acetyl]amino]ethoxy]ethoxy]acetyl-bAsp-Phe(4-sulfomethyl)-Nle-Gly-Trp-Nle-DMeAsp-MePhe-amide] ({C18 diacid-γGlu-AEEA-AEEA-βAsp}-[Phe(4-CH2SO3H)][Nle]GW[Nle][dNMeD][NMeF]-NH2) | > 1000 | > 10000 |  |  |
| CC(C)C[C@H](NC(=O)[C@H](Cc1ccc(OS(=O)(=O)O)cc1)NC(=O)[C@H](CCC(=O)O)NC(=O)COCCOCCNC(=O)COCCOCCNC(=O)CC[C@H](NC(=O)CCCCCCCCCCCCCCCCC(=O)O)C(=O)O)C(=O)NCC(=O)N[C@@H](Cc1c[nH]c2ccccc12)C(=O)N[C@@H](CCC(N)=O)C(=O)N(C)[C@H](CC(=O)O)C(=O)N[C@@H](Cc1ccccc1)C(N)=O [Example 41, 2-[2-[2-[[2-[2-[2-[[(4S)-4-Carboxy-4-(17-carboxyheptadecanoylamino)butanoyl]amino]ethoxy]ethoxy]acetyl]amino]ethoxy]ethoxy]acetyl-Glu-sTyr-Leu-Gly-Trp-Gln-DMeAsp-Phe-amide] | > 1000 | > 10000 |  |  |
| CCCC[C@H](NC(=O)[C@H](Cc1c[nH]c2ccccc12)NC(=O)CNC(=O)[C@H](CC(C)C)NC(=O)[C@H](Cc1ccc(OS(=O)(=O)O)cc1)NC(=O)[C@H](CCC(=O)O)NC(=O)COCCOCCNC(=O)COCCOCCNC(=O)CC[C@H](NC(=O)CCCCCCCCCCCCCCCCCCC(=O)O)C(=O)O)C(=O)N(C)[C@H](CC(=O)O)C(=O)N(C)[C@@H](Cc1ccccc1)C(N)=O [Example 37, 2-[2-[2-[[2-[2-[2-[[(4S)-4-Carboxy-4-(19-carboxynonadecanoylamino)butanoyl]amino]ethoxy]ethoxy]acetyl]amino]ethoxy]ethoxy]acetyl-Glu-sTyr-Leu-Gly-Trp-Nle-DMeAsp-MePhe-amide] ({C20 diacid-γGlu-AEEA-AEEA}-E[sY]LGW[Nle][dNMeD][NMeF]-NH2) |  | 430 |  |  |
